Data on three compounds can be found in paper PMC9139161, “Phenolics from Chrozophora oblongifolia Aerial Parts as Inhibitors of α-Glucosidases and Advanced Glycation End Products: In-Vitro Assessment, Molecular Docking and Dynamics Studies” (Biology, 2022).

One experiment can be described thus: DPPH assay. The conditions noted are these: read-out: DPPH assay IC50 (Mean ± SE). The protocol:
Isolated compounds were prepared in final concentrations of 1000 µM in DMSO. Compounds that exceeded 50% inhibition at this concentration were serially diluted to determine their IC50. Ascorbic acid was used as a positive control, prepared in a concentration of 100 µM in water from which six concentrations were prepared to calculate its IC50. The method is based on the reduction of free radical of 2,2-diphenyl-1-picrylhydrazyl (DPPH). Briefly, in a 96-well plate, 20 μL of the isolated compound was incubated for 20 min in the absence of light with 180 μL of DPPH reagent (100 μM). The reduction of intensity in the color of DPPH was assessed on a microplate reader (TECAN, Männedorf, Switzerland) at 540 nm (Supplementary Table S2).

Another experiment in a line: ABTS assay. Particulars: concentration-response curve. The protocol: DMSO was used for the preparation of 0.5 mg/mL concentrations of isolated compounds, meanwhile, the positive control (ascorbic acid) was used to prepare a stock solution of 1000 µM in water; from which seven concentrations were prepared including 7.812, 15.625, 31.25, 62.5, 125, 250 and 500 µM to construct the concentration-response curve (Supplementary Data Figure S2). The activity of the tested compounds to scavenge the free radicals of ABTS (2,2′-azino-bis (3-ethylbenzothiazoline-6-sulfonic acid)) was assessed according to the methodology reported previously with slight modifications.
Five milliliters of aqueous solution (7 mM) of ABTS was mixed with 88 µL potassium persulfate (140 mM) and the mixture was kept in the dark for 16 h to produce ABTS radical cation (ABTS^•+). Then methanol was added to the reaction mixture to dilute the formed ABTS^•+ solution to an absorbance of 0.700 (1:50) at 690 nm.
Ten microliters of the tested compound were incubated with 190 μL of ABTS^•+ solution in a 96-well plate for thirty minutes in the dark and the absorbance was measured later using a microplate reader (TECAN, Männedorf, Switzerland) at 690 nm. Data are represented as means (n = 3) ± SD and the antioxidant effect of the tested compounds was calculated as µM Ascorbic acid equivalents by substitution in the linear regression equation (Supplementary Figure S2).

A short description of experiment [1]: Metal chelation assay (ferrozine). Particulars: concentration-response curve. As to the method:
Isolated compounds were dissolved in DMSO to prepare a concentration of 0.5 mg/mL, meanwhile, the positive control (EDTA) was used to prepare a stock solution of 100 µM in water; from which six concentrations were prepared including 5, 10, 20, 40, 50 and 80 µM to construct the dose-response curve. The assay was carried out as previously reported, with minor modifications. Briefly, in 96 wells plate (n = 6) 20 µL of the freshly prepared ferrous sulfate (0.3 mM) was mixed with 50 µL of the tested compound and incubated with 30 µL of ferrozine (0.8 mM) for 10 min at room temperature. Finally, reduction in color intensity was assessed at 540 nm using a microplate reader (Tecan, San Jose, CA, USA). Data are represented as means (n = 3) ± SD and the antioxidant effect of the extracts was calculated as µM EDTA equivalents by substitution in the linear regression equation (Supplementary Figure S4).

The subject of experiment [2] is advanced glycation end products (AGEs) formation, BSA-fructose model. Nature of the experiment: AGEs formation inhibition, BSA-fructose assay. Format: biochemical. Particulars: AGEs fluorescence, 72 h, 37 °C; read-out: BSA-Fructose Model IC50 (Mean ± SE). The protocol:
(§1) The isolated compounds were prepared at final concentrations of 500 µM in DMSO in the BSA-fructose assay, and 1000 µM in all other AGEs assays. Compounds that exceeded 50% inhibition at this concentration were serially diluted to determine their IC50. All tests were conducted using quercetin (positive control).
According to the previous report, the inhibition test for AGE formation was assessed using the BSA-fructose model. Briefly, BSA (50 mg/mL) and fructose (1.25 M) (in 200 mM phosphate buffer, pH 7.4, with 0.02% sodium azide) were incubated with Sample/blank in the dark for 72 h at 37 °C, (1:1:1 by volume). On a microplate reader (Fluostar Omega BMG Labtech, Ortenberg, Germany), fluorescent AGEs were detected using excitation and emission wavelengths of 355 nm and 460 nm, respectively. Triplicates of all experiments were performed, and the percentage of AGEs inhibition was calculated.

Experiment [3] relates to advanced glycation end products (AGEs) formation, arginine-methylglyoxal model. Nature of the experiment: AGEs formation inhibition, arginine-methylglyoxal assay. Format: biochemical. The conditions noted are these: AGEs fluorescence, 72 h, 37 °C; read-out: Arginine-Methylglyoxal Model IC50 (Mean ± SE). The protocol: as §1
The determination of the inhibitory effect of the isolated compounds on the formation of AGEs in the arginine methylglyoxal model was used as described previously with slight modification. Briefly, in black 96-microwell plates, a sample was incubated for 72 h at 37 °C in the dark with methylglyoxal (53.3 mM, in distilled water) and 106.6 mM arginine (in 200 mM phosphate buffer, pH 7.4, with 0.02% sodium azide), (1:1:1 v/v/v). On a microplate reader (Fluostar Omega/BMG Labtech/Germany), fluorescent AGEs were detected using excitation and emission wavelengths of 355 nm and 460 nm, respectively. Triplicates of all experiments were performed.

Experiment [4] relates to advanced glycation end products (AGEs) formation, BSA-methylglyoxal model. Description: AGEs formation inhibition, BSA-methylglyoxal assay. Format: biochemical. Particulars: AGEs fluorescence, 72 h, 37 °C; read-out: BSA-Methylglyoxal Model IC50 (Mean ± SE). The protocol: as §1
AGEs inhibitory activity of the isolated compounds was determined according to the reported procedures with slight modification. Briefly, in black 96-microwell plates, samples were incubated for 72 h at 37 °C in the dark with bovine serum albumin (BSA, 50 mg/mL) (in 200 mM phosphate buffer, pH 7.4, with 0.02% sodium azide) and methyl-glyoxal (53.3 mM, in distilled water), (1:1:1 v/v/v). On a microplate reader (Fluostar Omega/BMG Labtech/Germany), fluorescent AGEs were detected using excitation and emission wavelengths of 355 nm and 460 nm, respectively. Triplicates of all experiments were performed.

Structures are written as SMILES.

On to `O=C1O[C@H]([C@@H](O)CO)C(O)=C1O` [ascorbic acid, Ascorbic acid], for which the IC50 (commonly the midpoint of a concentration-inhibition curve) in the experiment “DPPH assay” is 28 µM. In addition, the ABTS % inhibition in the experiment “ABTS assay” (7.8125 µM) stood at 2.8930%; in “ABTS assay” (15.625 µM) it was 3.7803%; in “ABTS assay” (31.25 µM), 5.5156%; in “ABTS assay” (62.5 µM), 9.7291%; in the experiment “ABTS assay” (125 µM), 16.88%; in the experiment “ABTS assay” (250 µM), 33.5451%. The ABTS % inhibition in “ABTS assay” (500 µM) is listed as 62.86%.
With `O=C(O)CN(CCN(CC(=O)O)CC(=O)O)CC(=O)O` [EDTA, reference compound], the “Metal chelation % inhibition” value in experiment [1] (5 µM) was found to be 8.429%; in experiment [1] (10 µM), 13.464%; in experiment [1] (20 µM), 19.624%; in experiment [1] (40 µM), 41.866%; in experiment [1] (50 µM) it was 48.303%; in experiment [1] (80 µM) it was 72.307%.
Take `O=c1c(O)c(-c2ccc(O)c(O)c2)oc2cc(O)cc(O)c12` [Quercetin, quercetin, reference compound]: the IC50 worked out at 62 µM in experiment [2], 536 µM in experiment [3] and 941 µM in experiment [4].
